PubChem BioAssay (NCI)
Values joined by “and” are separate entries in the source; they are usually repeats but may differ in a detail not shown here. Equal entries are not always repeated.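 These data come from cells grown in 96-well plates and exposed to compound for 48 hours at five concentrations. GI50 = concentration required for 50% inhibition of growth. TGI marks complete inhibition of growth.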

How the values were obtained:
Assay in all cases: DTP human tumour cell line panel, 48 h
NCI-H460 lung = tested on: NCI-H460 lung
TK-10 renal = tested on: TK-10 renal
HS 578T breast = tested on: HS 578T breast
MCF7 breast = tested on: MCF7 breast
NCI-H522 lung = tested on: NCI-H522 lung
ACHN renal = tested on: ACHN renal
SF-295 CNS = tested on: SF-295 CNS
K-562 leukemia = tested on: K-562 leukemia
SN12C renal = tested on: SN12C renal
RXF 393 renal = tested on: RXF 393 renal

Structure (SMILES)	GI50 (NCI-H460 lung)	TGI (NCI-H460 lung)	GI50 (TK-10 renal)	TGI (TK-10 renal)	GI50 (HS 578T breast)	TGI (HS 578T breast)	GI50 (MCF7 breast)	TGI (MCF7 breast)	GI50 (NCI-H522 lung)	TGI (NCI-H522 lung)	GI50 (ACHN renal)	TGI (ACHN renal)	GI50 (SF-295 CNS)	TGI (SF-295 CNS)	GI50 (K-562 leukemia)	TGI (K-562 leukemia)	GI50 (SN12C renal)	TGI (SN12C renal)	GI50 (RXF 393 renal)	TGI (RXF 393 renal)
O=C(/C=C/c1ccco1)Nc1ncc(Cc2cccc(C(F)(F)F)c2)s1	0.0401 µM	9.59 µM	0.779 µM	13.8 µM	0.0466 µM	3.89 µM	0.0367 µM	> 56.2 µM	0.0321 µM	0.328 µM	0.0647 µM	3.66 µM	0.0678 µM	1.42 µM	0.0361 µM	> 33.8 µM	0.197 µM	> 50.5 µM	0.0576 µM	0.853 µM
O=C(O)c1ccc(NCc2nc3ccccc3[nH]2)cc1	> 100 µM	> 100 µM	> 100 µM	> 100 µM	> 100 µM	> 100 µM	99.9 µM	> 100 µM	> 100 µM	> 100 µM	> 100 µM	> 100 µM	> 100 µM	> 100 µM	> 100 µM	> 100 µM	> 100 µM	> 100 µM	> 100 µM	> 100 µM
CC(C)n1nc(C#Cc2cccc(O)c2)c2c(N)ncnc21	1.34 µM and 1.13 µM	9.9 µM and 13.1 µM	2.57 µM and 2.03 µM	10.1 µM and 5.05 µM	0.583 µM and 0.17 µM	1.88 µM and 0.632 µM	1.62 µM and 1.51 µM	50 µM and 11.9 µM	0.627 µM	5.33 µM and 4.55 µM	1.05 µM and 0.461 µM	4.18 µM and 3.96 µM	3.16 µM and 1.17 µM	12.2 µM and 3.58 µM	0.0636 µM and 0.0283 µM	50 µM and > 100 µM	0.894 µM and 0.532 µM	5.09 µM and 4.76 µM	1.15 µM and 0.481 µM	4.2 µM and 1.5 µM
Cc1cc(I)cc(CNCCN2CCOCC2)c1O	52.8 µM	> 100 µM	> 100 µM	> 100 µM	> 100 µM	> 100 µM	> 100 µM	> 100 µM	92.8 µM	> 100 µM	> 100 µM	> 100 µM	36 µM	> 100 µM	87.5 µM	> 100 µM	> 100 µM	> 100 µM	48.5 µM	> 100 µM
COc1ccc(C2CC(c3ccccc3)=NN2C(=O)c2cc(OC)c(OC)c(OC)c2)cc1O (centres undefined)	0.354 µM	12.6 µM	14.7 µM	> 100 µM	0.316 µM	1.13 µM	0.339 µM	> 53.6 µM	0.335 µM	7.03 µM	0.816 µM	58.1 µM	0.366 µM	> 38.5 µM	0.297 µM	27.1 µM	0.766 µM	34.4 µM	0.317 µM	0.84 µM
CC(=O)OC1CC2C(C)(C)CCC[C@]2(C)C2=C1C(O)=C(C(C)C)C(=O)C2=O (some centres undefined)	0.354 µM	1.69 µM	1.43 µM	12.8 µM	0.532 µM	> 20.4 µM	1.1 µM	3.75 µM	1.65 µM	3.42 µM	0.465 µM	1.66 µM	0.644 µM	2.57 µM	0.919 µM	> 100 µM	0.801 µM	7.58 µM	0.254 µM	1.02 µM
[N-]=[N+]=NCCCn1c2c(c3ccc([N+](=O)[O-])cc3c1=O)C(=O)c1cc(I)ccc1-2	0.449 µM	11.6 µM	71.9 µM	> 100 µM	28 µM	> 100 µM	0.586 µM	> 100 µM	1.68 µM	12.4 µM	2.25 µM	7.5 µM	1.54 µM	> 100 µM	5.15 µM	> 100 µM	3.89 µM	> 100 µM	12.5 µM	62.8 µM
CCC(CC)c1cc(N[C@H]2CC[C@H](N)C2)n2nccc2n1	0.358 µM	> 100 µM	3.58 µM	> 100 µM	2.27 µM	9.44 µM	0.328 µM	> 100 µM	0.281 µM	1.55 µM	1.44 µM	> 100 µM	1.83 µM	> 100 µM	0.642 µM	> 100 µM	0.691 µM	> 100 µM	0.632 µM	2.36 µM
NS(=O)(=O)c1ccc(N=Nc2c(O)[nH]c3ccc(C(=O)NCCc4cnc[nH]4)cc23)cc1	> 25 µM	> 25 µM	> 25 µM	> 25 µM	> 25 µM	> 25 µM	> 25 µM	> 25 µM	> 25 µM	> 25 µM	> 25 µM	> 25 µM	> 25 µM	> 25 µM	> 25 µM	> 25 µM	> 25 µM	> 25 µM	> 25 µM	> 25 µM
O=C(COc1cccc(/C=C2\COc3ccccc3C2=O)c1)c1ccccc1	12.3 µM	24.9 µM	3.6 µM	11.2 µM	2.34 µM	> 100 µM	1.98 µM	4.27 µM	1.81 µM	3.79 µM	2.14 µM	5.18 µM	1.93 µM	15.8 µM	2.05 µM	5.65 µM	4.7 µM	19.8 µM	2.48 µM	9.29 µM
CCC(C)C(=O)O[C@H]1C(=O)O[C@@H]2C[C@H]3C(C)=CC(=O)[C@@H](O)[C@]3(C)[C@H]3[C@@H](O)[C@H](O)[C@@]4(C)OC[C@]32[C@@H]14 (some centres undefined)	–	< 0.0185 µM	–	< 0.0389 µM	–	< 0.01 µM	–	< 0.01 µM	–	0.0773 µM	–	0.566 µM	–	–	–	0.214 µM	–	< 0.0135 µM	–	< 0.0345 µM
C=C1C[C@@H](O)[C@@H](Br)C(C)(C)[C@]12CCC(C)(Br)C(Cl)C2 (some centres undefined)	18 µM	> 50 µM and 32.4 µM	15.7 µM	> 50 µM and 29.8 µM	29.9 µM	> 50 µM and 96.4 µM	16.8 µM	> 50 µM and 31.1 µM	17.4 µM	> 50 µM and 32.1 µM	18.5 µM	> 50 µM and 34.1 µM	17.9 µM	> 50 µM and 34.9 µM	19.2 µM	> 50 µM and 42.4 µM	16.5 µM	> 50 µM and 31.3 µM	18.5 µM	> 50 µM and 37.2 µM
